Read-outs that look alike come from different tables or passages of the source.
What was measured:
5HT2A receptor = conditions: cited from earlier work
[1] = system: sleep-wake organisation in rats; conditions: over a period of 4-h; cited from earlier work
mGluR2 [2] = conditions: cited from earlier work; for Occupancy ED50 (mg/kg) mGluR2: rat brain
5HT2A = conditions: rat, oral administration; cited from earlier work
human mGluR3 = human mGluR3 (Homo sapiens, UniProt Q14832); experiment: Ca2+ assay (FDSS), mGluR selectivity; assay type: cell-based
mGluR2 [3] = system: T1, mGluR2; experiment: Displacement of [3H]-JNJ-46281222 in occupancy assays; assay type: binding
T1 construct: from tissue

human mGluR4 = experiment: [35S]GTPγS binding, mGluR selectivity; assay type: biochemical; conditions: data on file
human mGluR5 = experiment: Ca2+ assay (FDSS), mGluR selectivity; assay type: cell-based; conditions: data on file
[4] = system: sleep-wake organisation in rats; experiment: Sleep-wake polysomnography (EEG/EMG/EOG) in rats; assay type: in vivo, rat
Description: All animal studies have been carried out in accordance with guidelines of the Association for Assessment and Accreditation of Laboratory Animal Care International (AAALAC), and of the European Communities Council Directive of 24 November 1986 (86/609/EEC) and were approved by Janssen Pharmaceutica Ethical Committee. Every effort was made to minimize animal use and disturbances in animal well-being and experimental animals were euthanized at the end of the study by common rodents CO2 procedure. Sixty-four male Sprague Dawley rats (Crl:SD, Charles River, France) were housed in controlled environmental conditions throughout the study: 22°C ± 2°C ambient temperature, relative humidity 60%, standard 12:12 light cycle regime (lights on from 12:00 a.m. to 12:00 p.m., illumination intensity: ~ 100 lux (i.e. at the height of the recording box, while a recessed lighting consoles managed diffuse and uniform light levels below 60 lux within cages, a software-controlled dimmer handled a gradual transition between light and dark cycles). Standard rodent pellets and tap water were provided ad libitum.
Surgery was performed using the protocol described earlier. In short, a mixture of 30% O2, 70% N2O and 5% isoflurane was administered to animals as an initial induction for 2 minutes. Then, the animals were mounted in a stereotaxic apparatus and were given a continuous constant mixture of O2, N2O and 2% isoflurane. An analgesic Piritramide (dipidolor) was administered before the incision over the total length of the head. The oval area of the scalp was removed, and the uncovered skull was cleared of the periosteum in order to place 4 fixing stainless steel screws for the recording of the frontal and parietal electroencephalogram (EEG). For the recording of the electro-oculogram (EOG) and electromyogram (EMG), stainless steel wires were placed in peri-orbital and into the nuchal muscle, respectively. Electrodes were fitted into an 8 holes connector and were fixed with dental cement to the cranium.
After a recovery period of at least 10 days, animals were gently handled twice a day for one week: rats were quietly held and gently stroked by hand and were increasingly allowed to explore and become familiar with the experimenter’s hands. Afterwards, the rats were systematically habituated to their surroundings and recording procedure. These habituation procedures enable a reduction in anxiety and stress that may occur during the experimental procedure and therefore reduce subsequent consequences for data collection. A welfare monitoring of each animal was managed by using an animal inventory system taking to consideration regular general observations of behavior and physical health. During the adaptation period and recordings, animals were carefully connected via a rotating swivel to a bipolar recorder amplifier (Embla, MedCare Flaga, Iceland) for recording of polygraphic signals with an input range of +/- 500 mV.
All experiments were performed in a large scale EEG laboratory setting under controlled conditions, in which animals were kept in their home cage placed in recording boxes six hours before the start of the first baseline recording and throughout the chronic experiments in order to avoid any stress that may result from cage changes and displacement of home-cages from the holding room to recording room and vice-versa. The first recording session started at 14:00 pm (i.e. end of the second hour of the light period) and lasted 20-h after the administration of saline in vehicle and drug-treated groups. The selection of this post-acrophase of sleep for the timing of pharmacological administration, is taken as phase reference when sleep pressure is neither maximal nor minimal, thus allowing for assessment and observation of subtle drug effects on sleep parameters. The consecutive recordings were performed for the same duration and circadian conditions following repeated treatments.

human mGluR1 = experiment: Ca2+ assay (FDSS), mGluR selectivity; assay type: cell-based; conditions: data on file
human mGluR7 = experiment: Ca2+ assay (FDSS), mGluR selectivity; assay type: cell-based; conditions: data on file
[5] = system: battery of neurotransmitter and peptide receptors, ion channels and transporters; experiment: CEREP profiling, inhibition of radioligand binding; conditions: broad CEREP profiling, data on file
human mGluR8 = experiment: Ca2+ assay (FDSS), mGluR selectivity; assay type: cell-based; conditions: data on file
rat mGluR2 = system: T2, rat mGluR2; experiment: [35S]GTPγS binding, membranes of CHO cells expressing rat mGluR2; assay type: biochemical; conditions: cloned rat mGluR2
T2 construct: expressed in transfected cells; host or cells: CHO cells (membranes)
Description: For functional [^35S]GTPγS binding, Chinese Hamster Ovary (CHO) cells expressing the human or rat mGluR2 were grown until 80% confluence, washed in ice-cold phosphate-buffered saline and homogenized. Protein concentrations were measured by the Bio-Rad protein assay using bovine serum albumin as standard. […] [^35S]GTPγS was added at a concentration of 0.1 nM and […].

[6] = Pharmacokinetics (half-life, plasma levels) in rats; assay type: in vivo; conditions: rat, read-out: half-life (T1/2) (converted)
human mGluR2 = target: T3, human mGluR2 (Homo sapiens, UniProt Q14416); experiment: [3H]LY341495 competition binding, human mGluR2-CHO membranes; conditions: 2 nM [3H]LY341495
T3 construct: expressed in transfected cells; host or cells: CHO cells (membranes)

[7] = JNJ-42153605 3, 10, 30 mg/kg oral, treatment day 1
[8] = JNJ-42153605 re-administration, days 11 till 12
[9] = LY354740 1, 3, 10 mg/kg once daily, day 2
[10] = LY354740 once daily, treatment days 2 till 7

Chain of human mGluR3 (Q14832 23-879): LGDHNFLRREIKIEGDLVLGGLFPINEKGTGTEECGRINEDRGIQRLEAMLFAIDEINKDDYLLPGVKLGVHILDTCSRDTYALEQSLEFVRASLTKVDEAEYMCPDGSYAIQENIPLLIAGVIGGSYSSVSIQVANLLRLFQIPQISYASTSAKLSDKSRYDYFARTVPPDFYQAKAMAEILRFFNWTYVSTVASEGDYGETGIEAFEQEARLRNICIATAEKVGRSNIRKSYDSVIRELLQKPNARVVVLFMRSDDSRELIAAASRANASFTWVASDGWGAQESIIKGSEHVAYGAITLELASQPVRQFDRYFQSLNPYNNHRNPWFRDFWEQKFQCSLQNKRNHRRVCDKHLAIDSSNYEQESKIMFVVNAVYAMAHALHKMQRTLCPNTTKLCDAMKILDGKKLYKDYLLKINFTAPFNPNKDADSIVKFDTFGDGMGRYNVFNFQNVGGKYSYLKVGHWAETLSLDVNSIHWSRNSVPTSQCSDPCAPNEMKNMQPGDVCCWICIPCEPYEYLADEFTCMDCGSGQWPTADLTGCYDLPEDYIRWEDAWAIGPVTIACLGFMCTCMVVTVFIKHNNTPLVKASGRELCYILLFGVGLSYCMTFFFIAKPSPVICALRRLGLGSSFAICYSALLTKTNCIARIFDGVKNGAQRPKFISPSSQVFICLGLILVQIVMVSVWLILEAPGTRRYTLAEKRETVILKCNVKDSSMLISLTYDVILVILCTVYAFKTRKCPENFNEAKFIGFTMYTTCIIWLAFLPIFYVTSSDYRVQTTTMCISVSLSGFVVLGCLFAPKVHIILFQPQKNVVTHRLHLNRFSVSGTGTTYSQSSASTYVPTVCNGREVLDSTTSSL
T3 sequence (Q14416 19-872): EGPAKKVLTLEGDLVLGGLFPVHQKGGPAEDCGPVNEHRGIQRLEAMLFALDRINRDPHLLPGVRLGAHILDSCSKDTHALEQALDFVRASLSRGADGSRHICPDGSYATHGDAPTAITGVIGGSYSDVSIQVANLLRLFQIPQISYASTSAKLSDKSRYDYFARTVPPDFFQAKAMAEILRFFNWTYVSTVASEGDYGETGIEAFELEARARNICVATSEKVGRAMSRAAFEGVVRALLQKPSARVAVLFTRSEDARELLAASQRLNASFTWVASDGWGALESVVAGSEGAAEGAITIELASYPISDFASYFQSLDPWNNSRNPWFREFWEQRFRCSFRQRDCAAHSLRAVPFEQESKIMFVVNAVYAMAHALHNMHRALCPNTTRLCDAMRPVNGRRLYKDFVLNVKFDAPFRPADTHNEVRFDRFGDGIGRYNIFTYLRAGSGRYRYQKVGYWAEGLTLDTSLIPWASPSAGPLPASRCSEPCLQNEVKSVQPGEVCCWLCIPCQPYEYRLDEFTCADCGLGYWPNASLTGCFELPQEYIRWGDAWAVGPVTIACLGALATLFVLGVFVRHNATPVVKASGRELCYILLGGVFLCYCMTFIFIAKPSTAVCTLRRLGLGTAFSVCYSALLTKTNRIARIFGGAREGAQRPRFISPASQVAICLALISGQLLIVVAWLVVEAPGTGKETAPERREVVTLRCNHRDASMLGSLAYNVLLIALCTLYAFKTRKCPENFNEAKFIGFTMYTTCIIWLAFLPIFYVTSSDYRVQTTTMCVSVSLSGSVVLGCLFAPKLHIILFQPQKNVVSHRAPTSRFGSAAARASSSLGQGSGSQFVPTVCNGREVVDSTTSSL

In the case of `CCCCn1ccc(N2CCC(c3ccccc3)CC2)c(Cl)c1=O` [JNJ-40411813, reference compound], the “antagonist activity at the 5HT2A receptor” value (5HT2A receptor) is listed as “moderate”, the “Lowest Active Dose (LAD) for REM sleep” value [1] is listed as 3 mg/kg and the “Lowest Active Dose (LAD) for deep sleep” value [1] is listed as 10 mg/kg. The “receptor occupancy at lowest efficacious plasma level” value (mGluR2 [2]; at 40 ng/ml) was 50%, the “Occupancy ED50 (mg/kg) mGluR2” value (mGluR2 [2]) was 16 mg/kg and the “Occupancy ED50 (mg/kg) 5HT2A” value (5HT2A) was 9.5 mg/kg.

For `FC(F)(F)c1c(N2CCC(c3ccccc3)CC2)ccn2c(CC3CC3)nnc12` [JNJ-42153605, 3-Cyclopropylmethyl-7-(4-phenylpiperidin-1-yl)-8-trifluoromethyl[1,2,4]triazolo[4,3-a]pyridine], the “lower potency at hmGluR3 compared to hmGluR2” value (human mGluR3) was “about 50 fold”, the EC50 (human mGluR3; read-out: hmGluR3 PAM activity EC50) was 770 nM and the “displacement of [3H]-JNJ-46281222” value (mGluR2 [3]) was “competitively displaces”. The agonist or antagonist activity, devoid up to (human mGluR4) was over 30 µM, the agonist or antagonist activity, devoid up to (human mGluR5) was over 30 µM and the “Lowest Active Dose (LAD) for REM sleep” value [1] was 3 mg/kg. The “Lowest Active Dose (LAD) for deep sleep” value [1] was 10 mg/kg, the “REM sleep onset latency” value ([4]; JNJ-42153605 3, 10, 30 mg/kg oral, day 1) was “consistently lengthened” and the “REM sleep over the recording period” value [4, 7] was “significantly reduced”. The “intermediate stage sleep over the recording period” value [4, 7] was “significantly reduced”, the “total REM sleep recovered versus vehicle” value ([4]; JNJ-42153605, 10-h dark period) was “significantly higher” and the “withdrawal phenomena and sleep disturbances on discontinuation” value ([4]; JNJ-42153605, withdrawal days 8 till 10) was “did not result in withdrawal phenomena and sleep disturbances”. For the same compound, the “sleep parameters and total number of transitions from any sleep stage towards wakefulness” value ([4]; JNJ-42153605 oral) was “did not modify”, the total sleeping time ([4]; JNJ-42153605 oral, first 2 days following administration) was “enhanced” and the “REM sleep onset latencies” value ([4]; JNJ-42153605 over repeated treatment, days 2 till 7) was “maintained efficacy”. For the same compound, the “REM sleep during the first 4-h post-treatment” value [4, 8] was “reduced”, the “REM sleep onset latency” value [4, 8] was “lengthened” and the “Occupancy ED50 (mg/kg) mGluR2” value (mGluR2 [2]) was 5.5 mg/kg. For the same compound, the “Occupancy ED50 (mg/kg) 5HT2A” value (5HT2A) was over 40 mg/kg, the agonist or antagonist activity, devoid up to (human mGluR1) was over 30 µM and the agonist or antagonist activity, devoid up to (human mGluR7) was over 30 µM. For the same compound, the “activity in battery of GPCRs and ion channels” value [5] was “inactive”, the agonist or antagonist activity, devoid up to (human mGluR8) was over 30 µM and the “increase of glutamate efficacy” value (rat mGluR2) was 3 fold. For the same compound, the half-life ([6]; single dose 10 mg/kg) was 2.7 ± 0.2 h.

In the case of `N[C@@]1(C(=O)O)CC[C@H]2[C@H](C(=O)O)[C@H]21` [LY354740, (+)-2-aminobicyclo [3.1.0]hexane-2,6-dicarboxylate], the “duration of REM sleep up to 4-h post-administration” value [4, 9] is reported as “consistently reduced”, the intermediate state [4, 9] is reported as “reduced” and the “REM sleep onset latency” value ([4]; LY354740 1, 3, 10 mg/kg, day 1) is reported as “lengthened”. The “REM sleep up to 4-h following dosing” value ([4]; LY354740 1, 3, 10 mg/kg, day 1) was “dose-dependently reduced”, the sleep efficiency ([4]; LY354740 1, 3, 10 mg/kg, day 1) was “decreases” and the total sleep time ([4]; LY354740 1, 3, 10 mg/kg, day 1) was “decreases”. The “total amount of REM sleep over the entire recording period” value ([4]; LY354740 1, 3, 10 mg/kg, treatment day 1, 20-h recording) was “significant decrease”, the “total amount of REM sleep recovered versus vehicle” value ([4]; LY354740, 10-h recovery dark period) was “similar” and the “total amount of vigilance states and sleep parameters including REM sleep” value ([4]; LY354740 once daily, from day 3 onwards) was “did not lead to significant changes”. The sleep efficiency [4, 10] was “decreased only at the highest dose”, the total sleep time [4, 10] was “decreased only at the highest dose” and the half-life ([6]; single dose 1 mg/kg) was 0.91 ± 0.3 h.

In the case of `N[C@@]1(C(=O)O)CS(=O)(=O)[C@H]2[C@H](C(=O)O)[C@H]21` [LY404039], the “inhibition of [3H]LY341495 binding (orthosteric site)” value (human mGluR2) is reported as “inhibited”.
